This note sets out measurements from patent publication US7468446B2, “Substituted heterocyclic compounds and uses thereof” (Celgene Corporation, priority 2004, dated 2008).

`CCOc1cc(C(=CC#N)c2ccc3c(c2)nnn3C)ccc1OC` (mixture of isomers) [compound 4, (E/Z) 3-(3-Ethoxy-4-methoxy-phenyl)-3-(1-methyl-1H-benzotriazol-5-yl)-acrylonitrile] displayed a melting point of 180 to 182 °C. For `COc1cc(OC)cc(C(=CC#N)c2ccc3ccn(C)c3c2)c1` (mixture of isomers) [compound 7, (E/Z)-3-(3,5-Dimethoxy-phenyl)-3-(1-methyl-1H-indol-6-yl)-acrylonitrile] the value was 117 to 119 °C. The same measure for `CCOc1cc(C(=CC#N)c2ccc3c(c2)OCCN3C)ccc1OC` (mixture of isomers) [compound 3, (E/Z) 3-(3-Ethoxy-4-methoxy-phenyl)-3-(4-methyl-3,4-dihydro-2H-benzo[1,4]oxazin-7-yl)-acrylonitrile]: 99 to 101 °C. Turning to `CCOc1cc(C(=CC#N)c2ccc3ncccc3c2)ccc1OC` (mixture of isomers) [compound 5, (E/Z) 3-(3-Ethoxy-4-methoxy-phenyl)-3-quinolin-6-yl-acrylonitrile], the melting point lay in the range of 114 to 116 °C. For `CCOc1cc(C(=CC#N)c2ccc3cc[nH]c3c2)ccc1OC` (mixture of isomers) [compound 8, (E/Z)-3-(3-Ethoxy-4-methoxy-phenyl)-3-(1H-indol-6-yl)-acrylonitrile] the value was 132 to 134 °C; for `CCOc1cc(C(=CC#N)c2ccc3c(c2)CCO3)ccc1OC` (mixture of isomers) [compound 1, (E/Z) 3-(2,3-Dihydro-benzofuran-5-yl)-3-(3-ethoxy-4-methoxy-phenyl)-acrylonitrile], 49 to 51 °C; for `COc1cc(OC)cc(C(=CC#N)c2ccc3c(c2)OCCN3C)c1` [compound 2, 3-(3,5-Dimethoxy-phenyl)-3-(4-methyl-3,4-dihydro-2H-benzo[1,4]oxazin-7-yl)-acrylonitrile], 119 to 121 °C. `COc1cc(OC)cc(C(=CC#N)c2ccc3ncccc3c2)c1` (mixture of isomers) [compound 6, (E/Z) 3-(3,5-Dimethoxy-phenyl)-3-quinolin-6-yl-acrylonitrile] gave a melting point of 142 to 144 °C. On to `CCOc1cc(C(=CC#N)c2ccc3occc3c2)ccc1OC` (mixture of isomers) [compound 10, (E/Z)-3-Benzofuran-5-yl-3-(3-ethoxy-4-methoxy-phenyl)-acrylonitrile], for which the melting point was 95 to 97 °C.
